Entries after “also recorded” stand apart in the source; their conditions may differ. Like-named read-outs stand apart in the source and are kept apart here. Bounds are passed on as bounds.

As a reminder, the EC50 is the concentration needed to bring the measured effect to its halfway point. By EC90 is commonly meant the concentration needed for an effect of 90%. A word on the CC50: it is the concentration giving 50% cytotoxicity. A word on the half-life: it is how long it takes for the measured level to halve. Broadly, the CL/F is clearance divided by bioavailability, as obtained after extravascular dosing. In general, Vd/F refers to the apparent distribution volume after extravascular dosing. A word on the AUC: it is concentration integrated over time. A higher AUC goes with more exposure. As a reminder, the Cmax is the peak of the concentration-time curve.

Details of series [1]: method as in PMID 34937145. The conditions noted are these: early administration, non-hospitalized high-risk individuals ref 5; cited from earlier work.
The test system of series [2] is SARS-CoV-2 isolate USA-WA1/2020. Kind of series: microbe, parasite or virus in culture. The following applies: Severe acute respiratory syndrome coronavirus 2; Calu-3 cells, 44–48 hpi. The series is classed as cell-based.
Series [3] can be described thus: 7-day oral tolerability study with terminal pharmacokinetics in Syrian hamsters. The series is classed as in vivo. The conditions noted are these: 100 mg/kg PO daily, 7 days. The protocol:
(§1) Fig 3 Oral RVn prodrugs maintain high serum levels after repeated dosing in mice and hamsters. Multiple-dose oral tolerability and pharmacokinetics in mice and Syrian hamsters: (A and B) 5-day oral tolerability study in BALB/c mice with pharmacokinetics obtained after the final dose. Male 20–22 g mice were given the indicated drugs at (A) 80 mg/kg or (B) 100 mg/kg PO daily in 0.1 M sodium carbonate/bicarbonate pH 9 for 5 days. Plasma was obtained after the last dose at 1, 3, 6, and 12 h (In Vivo Technologies, Moffatt Field, CA). (C) 7-day oral tolerability study in Syrian hamsters with pharmacokinetics obtained after the final dose. […] All plasma samples were analyzed to determine prodrug levels (Aliri Bio, Colorado Springs, CO).
A 7-day oral tolerability and terminal pharmacokinetic study in 100–125 g male Syrian hamsters were done at Attentive Sciences (Stillwell, KS), under IACUC approval number 1123–6788. […] Daily clinical observation and weights were obtained. After the day 7 oral dose blood was obtained at the indicated times and plasma was frozen for analysis.

A short description of series [4]: Cell viability assay (CellTiter-Glo), A2T2-A549. The following applies: human, A2T2-A549 cells. In general terms: In ATP-based viability assays light output follows the ATP content of the culture.
The nature of series [5]: Cell viability assay (CellTiter-Glo), Vero-TMPRSS2. It is filed as cell-based, African green monkey. The conditions noted are these: African green monkey, Vero-TMPRSS2 cells, 48 h incubation. The protocol:
Cell viability assays (Table 1) were performed as previously described ([7]). Cells were cultured and seeded as per in vitro antiviral studies in opaque walled 96-well cell culture plates and incubated overnight for Huh7.5, A2T2-A549, and Vero-E6-TMPRSS2 cells and for 2 days for Calu-3 cells. Compounds or controls were added at the indicated concentrations in a total volume of 100 µL, and cells were incubated for 48 h. An equal volume of CellTiter-Glo reagent (Promega, Cat. #G7570) or CellTiter-Glo 2.0 reagent (Promega, Cat. #G9241) was added and mixed, and luminescence was recorded on a Veritas Microplate Luminometer (Turner BioSystems) or a Spark Multimode plate reader (Tecan) according to manufacturer instructions. Percent viability was normalized to DMSO controls, and CC50 values were derived from best fit curves calculated in Prism 10.

The subject of series [6] is SARS-CoV-2 isolate USA-WA1/2020. Nature of the series: microbe, parasite or virus in culture. The conditions noted are these: for EC50: Severe acute respiratory syndrome coronavirus 2, Vero/TMPRSS2, read-out: EC50 μM ± SD; for EC90: Severe acute respiratory syndrome coronavirus 2, Vero/TMPRSS2, read-out: EC90 μM ± SD.
The nature of series [7]: in vivo. The conditions noted are these: male, BALB/c, mouse.
The test system of series [8] is Calu-3 cells. Also on record: method as in PMID 37040439. The following applies: Calu-3, CellTiter-Glo, previously published, identical conditions ref 7; cited from earlier work.
The nature of series [9]: 5-day oral tolerability study with terminal pharmacokinetics in BALB/c mice. The series is classed as in vivo. The conditions noted are these: 80 mg/kg or 100 mg/kg daily PO. The protocol:
as §1
After fortification, 50 µL of plasma was crashed with 400 µL of methanol containing 10 ng/mL of the internal standard (V2066). One hundred fifty microliters of the supernatant was removed and diluted with 150 µL of water in a clean 96 well injection plate.
Chromatography for the prodrugs was performed on a Raptor Biphenyl (2.1 × 50) column at a flow rate of 0.5 mL/min. A gradient method starting at 60% B (0.1% formic acid in 90:10 methanol:acetonitrile) for 30 s and then ramping to 95% B over 2.5 min. This composition was held for 1.0 min before being returned to starting conditions and re-equilibration to 40% A (10 mM ammonium formate with 0.2% formic acid in water).
Oral pharmacokinetic studies were carried out at In Vivo Technologies (Moffatt Field, CA) in male BALB/c mice, 22–23 g under IACUC protocol number IVT-11–010Y12 (LifeSource Animal Care and Use Committee). […] Blood was obtained by facial vein or terminal cardiac puncture at the indicated times and plasma was frozen for analysis. Similar procedures were followed for 5-day tolerability and terminal dose pharmacokinetic studies in mice at oral daily doses of 80 or 100 mg/kg.

Series [10] in a line: Single dose PO or IV plasma pharmacokinetics and tolerability in BALB/c mice. The following applies: for AUC / Cmax: male, BALB/c, mouse, in vivo.
For series [11], the system named is SARS-CoV-2 isolate USA-WA1/2020. Nature of the series: microbe, parasite or virus in culture. The conditions noted are these: for EC50: Severe acute respiratory syndrome coronavirus 2, read-out: EC50 μM ± SD; for EC90: Severe acute respiratory syndrome coronavirus 2, read-out: EC90 μM ± SD.
The test system is the same in series [12]. Further details: method as in PMID 37040439. The following applies: Calu-3, dotted lines of Fig. 2 and 3 ref 7; read-out: in vitro EC90 for SARS-CoV-2 infection in Calu-3 cells; cited from earlier work.
For series [13] the test system is unchanged. Kind of series: microbe, parasite or virus in culture. The conditions noted are these: for EC50: Severe acute respiratory syndrome coronavirus 2, Huh7.5, read-out: EC50 μM ± SD; for EC90: Severe acute respiratory syndrome coronavirus 2, Huh7.5, read-out: EC90 μM ± SD.
On the set-up of series [14]: method as in PMID 38776389. The conditions noted are these: twice daily oral 30 mg/kg doses, BALB/c mice ref 10; cited from earlier work.
Series [15] concerns SARS-CoV-2 isolate USA-WA1/2020. The following applies: Vero-TMPRSS2.
Series [16] is described as follows: Cell viability assay (CellTiter-Glo), Huh7.5. The conditions noted are these: human, Huh7.5 cells.
For series [17], the system named is SARS-CoV-2 isolate USA-WA1/2020. The conditions noted are these: A2T2-A549.
A short description of series [18]: Cell viability assay (CellTiter-Glo), Calu-3. The following applies: human, Calu-3 cells.

Regarding `CCC(CC)COC(=O)[C@H](C)N[P@](=O)(OC[C@H]1O[C@@](C#N)(c2ccc3c(N)ncnn23)[C@H](O)[C@@H]1O)Oc1ccccc1` [remdesivir], in series [1], the “decrease of the risk of hospitalization or death” value was 87%.

For the molecule `CCCCCCCCCCCCCCCCCCOC[C@H](COP(=O)(O)OC[C@H]1O[C@@](C#N)(c2ccc3c(N)ncnn23)[C@H](O)[C@@H]1O)OCc1ccccc1` [Compound V2043, 1-O-octadecyl-2-O-benzyl-sn-glyceryl-P-RVn], the EC50 in [2] came out at 0.168 ± 0.074 µM; in series [6] it was 0.104 ± 0.03 µM; in series [11], 0.566 ± 0.028 µM; in [13] it was 0.117 ± 0.009 µM. The EC90 in series [2] was 0.484 ± 0.142 µM; in series [6] it was 0.248 ± 0.052 µM; in series [11], 1.62 ± 0.227 µM; in series [12], 320 nM; in [13] it was 0.293 ± 0.042 µM. For the same molecule, the “tolerability of seven-day once-daily oral dosing” value in series [3] is reported as “well tolerated without any appreciable toxicity; also recorded: No ill effects were reported”. Besides, the CC50 at 48 h in [4] was greater than 100000 nM; in series [5], 82600 nM. Further, the half-life in series [7] (iv, 7 mg/kg) was 0.7 h; in series [7] (po, 20 mg/kg), 4.46 h; in [7] (po, 60 mg/kg) it was 6.31 h; in series [7] (po, 180 mg/kg), 7.06 h. Moreover, the CL/F in series [7] (po, 20 mg/kg) was 4.35 mL/min/kg; in series [7] (po, 60 mg/kg), 5.57 mL/min/kg; in series [7] (po, 180 mg/kg), 14.1 mL/min/kg. In addition, the Vd/F in series [7] (po, 20 mg/kg) was determined as 1.68 L/kg; in series [7] (po, 60 mg/kg), 3.04 L/kg; in [7] (po, 180 mg/kg), 8.61 L/kg. Besides, in [8], the CC50 was 58300 nM. In addition, in series [9], the “tolerability of once-daily oral doses for 5 days” value was “no adverse clinical effects were noted”. Moreover, the “tolerability of single escalating oral doses” value in series [10] (20, 60 or 180 mg/kg single oral dose, BALB/c mice) is “well tolerated with no appreciable adverse effects”. The AUC in series [10] (iv, 7 mg/kg) is 46.6 µM·h; in [10] (po, 20 mg/kg), 90.1 µM·h; in [10] (po, 60 mg/kg), 199 µM·h; in series [10] (po, 180 mg/kg), 211 µM·h. Moreover, the Cmax worked out at 96.6 µM in series [10] (iv, 7 mg/kg); 10.6 µM in series [10] (po, 20 mg/kg); 20.3 µM in [10] (po, 60 mg/kg); 17 µM in [10] (po, 180 mg/kg).

For `CC(C)C(=O)OC[C@H]1O[C@@](C#N)(c2ccc3c(N)ncnn23)[C@H](O)[C@@H]1O` [Obeldesivir GS-5245, reference compound], in series [11], the EC50 worked out at 1.2 ± 0.084 µM and the EC90 is 1.89 ± 0.46 µM. Also, the daily systemic exposure in series [14] was 108 µM·h.

With `N#C[C@@]1(c2ccc3c(N)ncnn23)O[C@H](CO)[C@@H](O)[C@H]1O` [RVn, reference compound], the “SI (CC50/EC50)” value in series [15] is listed as greater than 92; in series [17], greater than 33. Moreover, the EC50 in series [2] was 0.665 ± 0.284 µM; in [6], 1.08 ± 0.264 µM; in series [11] it was 3.01 ± 0.038 µM; in series [13], 1.36 ± 0.544 µM. Also, the EC90 in series [2] turned out to be 1.89 ± 0.497 µM; in series [6] it was 2.43 ± 0.692 µM; in series [11] it was 4.49 ± 0.256 µM; in [13], 2.96 ± 0.866 µM. The CC50 at 48 h in series [16], in series [4], in series [5] and in series [18] was greater than 100000 nM each time.

Values taken from publication PMC11459966, “Oral pharmacokinetics and efficacy of oral phospholipid remdesivir nucleoside prodrugs against SARS-CoV-2 in mice” (Antimicrobial Agents and Chemotherapy, 2024).
